Results as given in patent US9481659B2, “Selective heterocyclic sphingosine 1 phosphate receptor modulators” (Celgene International II SÀRL, priority 2011, dated 2016).

Biological target: S1P1/EDG1 (Homo sapiens, UniProt P21453)
Assay: S1P1 CRE-bla CHOK1 reporter assay, inhibition of Forskolin induced cAMP
Type: cell-based
Settings: agonist activity range; S1P1 CRE-bla CHOK1 cells, 2 μM Forskolin; read-out: S1P1 ACTIVITY
Method: Generation of S1P1-Mediated Inhibition of cAMP Reporter Assay
A mammalian expression plasmid containing S1P1/EDG1 cloned into pcDNA3.1 was purchased from Missouri S&T cDNA Resource Centre. […] S1P1/pcDNA3.1 was transfected into the CRE-bla CHO K1 (Invitrogen) cell line, and stable single cell clones were selected using standard techniques.
S1P1 CRE-Bla CHOK1 Reporter Assay—Characterization of S1P1 Agonists
Cells were seeded into 384-well black wall/clear bottom plates at 10^4 cells/well/19.5 μl assay media (DMEM-phenol free, 0.5% charcoal/dextran stripped serum, 2 mM glutamine, 0.1 mM NEAA, 1 mM Na-Pyruvate, 25 mM Hepes) and incubated for 18 hrs at 37° C. in 5% CO2. Dose response curves (10-point) were generated in 10 mM Hepes, 0.1% Pluronic F127, in the presence of Forskolin. Cells were treated with 0.5 μl compound in the presence of 2 μM Forskolin for 4 hrs at 37° C. The FRET-based β-lactamase fluorescent substrate (LiveBLAzer™-FRET B/G Loading Kit CC4-AM; Invitrogen) was prepared according to manufacturer's directions, and incubated with cells for 2 hrs at room temperature.

Sequence of S1P1/EDG1 (P21453 whole entry): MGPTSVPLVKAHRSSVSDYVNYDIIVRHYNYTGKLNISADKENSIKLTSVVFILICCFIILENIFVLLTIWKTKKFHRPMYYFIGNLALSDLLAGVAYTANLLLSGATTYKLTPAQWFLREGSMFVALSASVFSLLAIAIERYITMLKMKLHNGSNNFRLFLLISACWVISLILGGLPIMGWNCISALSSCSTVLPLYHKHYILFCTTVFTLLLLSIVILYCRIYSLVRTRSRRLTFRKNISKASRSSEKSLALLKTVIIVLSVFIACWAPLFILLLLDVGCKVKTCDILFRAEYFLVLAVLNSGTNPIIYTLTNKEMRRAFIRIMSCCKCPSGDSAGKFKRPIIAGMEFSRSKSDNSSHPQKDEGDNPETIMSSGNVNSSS

Structure (SMILES)	EC50
CC(C)Oc1ccc(-c2nnc(-c3cccc4c3CCC[C@H]4NC(=O)CN(C)C)s2)cc1C#N [Compound 236]	0.5 to 5 nM
COCC(=O)N[C@@H]1CCCc2c(-c3nnc(-c4ccc(OC(C)C)c(C#N)c4)s3)cccc21 [Compound 237]	0.05 to 0.5 nM
CC(C)Oc1ccc(-c2nnc(-c3cccc4c3CCC[C@@H]4NC(=O)CN(C)C)s2)cc1C#N [Compound 238]	0.5 to 5 nM
COCC(=O)N[C@H]1CCCc2c(-c3nnc(-c4ccc(OC(C)C)c(C#N)c4)s3)cccc21 [Compound 239]	0.5 to 5 nM
COC(=O)N[C@H]1CCCc2c(-c3nnc(-c4ccc(OC(C)C)c(C#N)c4)s3)cccc21 [Compound 240]	0.05 to 0.5 nM
CC(C)Oc1ccc(-c2nnc(-c3cccc4c3CCC[C@@H]4NC(=O)c3ccncc3)s2)cc1C#N [Compound 241]	0.5 to 5 nM
CC(C)Oc1ccc(-c2nnc(-c3cccc4c3CCC[C@@H]4NC(=O)c3cccnc3)s2)cc1C#N [Compound 242]	0.5 to 5 nM
CC(C)Oc1ccc(-c2nnc(-c3cccc4c3CCC[C@@H]4NC(=O)c3ccccn3)s2)cc1C#N [Compound 243]	> 5 nM
COC(=O)N[C@@H]1CCCc2c(-c3nnc(-c4ccc(OC(C)C)c(C#N)c4)s3)cccc21 [Compound 244]	0.5 to 5 nM
CC(C)Oc1ccc(-c2nnc(-c3cccc4c3CCC[C@H]4NC(=O)CO)s2)cc1C#N [Compound 245, (R)—N-(5-(5-(3-cyano-4-isopropoxyphenyl)-1,3,4-thiadiazol-2-yl)-1,2,3,4-tetrahydronaphthalen-1-yl)-2-hydroxyacetamide]	0.05 to 0.5 nM
CC(C)Oc1ccc(-c2nnc(-c3cccc4c3CCC[C@@H]4NC(=O)CO)s2)cc1C#N [Compound 246, (S)—N-(5-(5-(3-cyano-4-isopropoxyphenyl)-1,3,4-thiadiazol-2-yl)-1,2,3,4-tetrahydronaphthalen-1-yl)-2-hydroxyacetamide]	0.05 to 0.5 nM
CC(C)Oc1ccc(-c2nnc(-c3cccc4c3CCC[C@H]4NC(=O)[C@H](N)CO)s2)cc1C#N [Compound 247]	0.5 to 5 nM
CC(C)Oc1ccc(-c2nnc(-c3cccc4c3CCC[C@H]4NC(=O)[C@@H](N)CO)s2)cc1C#N [Compound 248]	0.05 to 0.5 nM
CC(C)Oc1ccc(-c2nnc(-c3cccc4c3CCC[C@H]4NC(=O)CCN)s2)cc1C#N [Compound 249]	0.5 to 5 nM
CC(C)Oc1ccc(-c2nnc(-c3cccc4c3CCC[C@H]4NC(=O)CN)s2)cc1C#N [Compound 250]	0.5 to 5 nM
CNCC(=O)N[C@@H]1CCCc2c(-c3nnc(-c4ccc(OC(C)C)c(C#N)c4)s3)cccc21 [Compound 251]	0.5 to 5 nM
CNCC(=O)N[C@H]1CCCc2c(-c3nnc(-c4ccc(OC(C)C)c(C#N)c4)s3)cccc21 [Compound 252]	0.05 to 0.5 nM
CC(C)Oc1ccc(-c2nnc(-c3cccc4c3CCC[C@@H]4NC(=O)CCN)s2)cc1C#N [Compound 253]	0.5 to 5 nM
CC(C)Oc1ccc(-c2nnc(-c3cccc4c3CCC[C@@H]4NC(=O)CCNS(C)(=O)=O)s2)cc1C#N [Compound 254]	0.5 to 5 nM
CC(C)Oc1ccc(-c2nnc(-c3cccc4c3CCC[C@@H]4NC(=O)CCO)s2)cc1C#N [Compound 255]	0.05 to 0.5 nM
CC(C)Oc1ccc(-c2nnc(-c3cccc4c3CCC[C@@H]4NC(=O)CCN(C)C)s2)cc1C#N [Compound 256, (S)—N-(5-(5-(3-cyano-4-isopropoxyphenyl)-1,3,4-thiadiazol-2-yl)-1,2,3,4-tetrahydronaphthalen-1-yl)-3-(dimethylamino)propanamide]	0.5 to 5 nM
CC(C)Oc1ccc(-c2nnc(-c3cccc4c3CCC[C@H]4NC(=O)CCN(C)C)s2)cc1C#N [Compound 257, (R)—N-(5-(5-(3-cyano-4-isopropoxyphenyl)-1,3,4-thiadiazol-2-yl)-1,2,3,4-tetrahydronaphthalen-1-yl)-3-(dimethylamino)propanamide]	> 5 nM
CC(C)Oc1ccc(-c2nnc(-c3cccc4c3CCC[C@H]4NC(=O)CCNS(C)(=O)=O)s2)cc1C#N [Compound 258]	0.5 to 5 nM
CC(C)Oc1ccc(-c2nnc(-c3cccc4c3CCC[C@H]4NC(=O)CCO)s2)cc1C#N [Compound 259]	0.05 to 0.5 nM

Structure (SMILES)	EC50
CNCCC(=O)N[C@@H]1CCCc2c(-c3nnc(-c4ccc(OC(C)C)c(C#N)c4)s3)cccc21 [Compound 260]	0.5 to 5 nM
CC(C)Oc1ccc(-c2nnc(-c3cccc4c3CCC[C@H]4NCc3c[nH]cn3)s2)cc1C#N [Compound 261]	> 5 nM
CC(C)Oc1ccc(-c2nnc(-c3cccc4c3CCC[C@H]4NCc3ccncc3)s2)cc1C#N [Compound 262]	0.5 to 5 nM
CC(C)Oc1ccc(-c2nnc(-c3cccc4c3CCC[C@H]4NCc3cccnc3)s2)cc1C#N [Compound 263, (R)-2-isopropoxy-5-(5-(5-((pyridin-3-ylmethyl)amino)-5,6,7,8-tetrahydronaphthalen-1-yl)-1,3,4-thiadiazol-2-yl)benzonitrile]	0.5 to 5 nM
CC(C)Oc1ccc(-c2nnc(-c3cccc4c3CCC[C@H]4NCc3ccccn3)s2)cc1C#N [Compound 264]	0.5 to 5 nM
CC(C)Oc1ccc(-c2nnc(-c3cccc4c3CCC[C@H]4NCc3ncc[nH]3)s2)cc1C#N [Compound 265]	0.5 to 5 nM
CC(C)Oc1ccc(-c2nnc(-c3cccc4c3CCC[C@@H]4NCc3ncc[nH]3)s2)cc1C#N [Compound 266]	0.05 to 0.5 nM
CC(C)Oc1ccc(-c2nnc(-c3cccc4c3CCC[C@@H]4NCc3cnc[nH]3)s2)cc1C#N [Compound 267]	0.5 to 5 nM
CC(C)Oc1ccc(-c2nnc(-c3cccc4c3CCC[C@@H]4NCc3ncco3)s2)cc1C#N [Compound 268]	0.5 to 5 nM
CC(C)Oc1ccc(-c2nnc(-c3cccc4c3CCC[C@@H]4NCc3cnco3)s2)cc1C#N [Compound 269]	0.5 to 5 nM
CC(C)Oc1ccc(-c2nnc(-c3cccc4c3CCC[C@@H]4NCc3ccncc3)s2)cc1C#N [Compound 270]	0.5 to 5 nM
CC(C)Oc1ccc(-c2nnc(-c3cccc4c3CCC[C@@H]4NCc3cccnc3)s2)cc1C#N [Compound 271, (S)-2-isopropoxy-5-(5-(5-((pyridin-3-ylmethyl)amino)-5,6,7,8-tetrahydronaphthalen-1-yl)-1,3,4-thiadiazol-2-yl)benzonitrile]	0.5 to 5 nM
CC(C)Oc1ccc(-c2nnc(-c3cccc4c3CCC[C@@H]4NCc3ccccn3)s2)cc1C#N [Compound 272]	0.5 to 5 nM
CC(C)Oc1ccc(-c2nnc(-c3cccc4c3CCC[C@H]4NCc3cnco3)s2)cc1C#N [Compound 273]	0.5 to 5 nM
CC(C)Oc1ccc(-c2nnc(-c3cccc4c3CCC[C@H]4NCCN(C)C)s2)cc1C#N [Compound 274, (R)-5-(5-(5-((2-(dimethylamino)ethyl)amino)-5,6,7,8-tetrahydronaphthalen-1-yl)-1,3,4-thiadiazol-2-yl)-2-isopropoxybenzonitrile]	0.5 to 5 nM
CC(C)Oc1ccc(-c2nnc(-c3cccc4c3CCC[C@H]4NS(N)(=O)=O)s2)cc1C#N [Compound 275, (R)—N-(5-(5-(3-cyano-4-isopropoxyphenyl)-1,3,4-thiadiazol-2-yl)-1,2,3,4-tetrahydronaphthalen-1-yl) sulfamide]	0.05 to 0.5 nM
CC(C)Oc1ccc(-c2nnc(-c3cccc4c3CCC[C@@H]4NS(N)(=O)=O)s2)cc1C#N [Compound 276, (S)—N-(5-(5-(3-cyano-4-isopropoxyphenyl)-1,3,4-thiadiazol-2-yl)-1,2,3,4-tetrahydronaphthalen-1-yl)sulfamide]	0.05 to 0.5 nM
CC(C)Oc1ccc(-c2ncc(-c3cccc4c3CCC[C@H]4NS(N)(=O)=O)s2)cc1C#N [Compound 277, (R)—N-(5-(2-(3-cyano-4-isopropoxyphenyl)thiazol-5-yl)-1,2,3,4-tetrahydronaphthalen-1-yl)sulfamide]	0.05 to 0.5 nM
CC(C)Oc1ccc(-c2nnc(-c3cccc4c3CCC[C@H]4NS(C)(=O)=O)s2)cc1C#N [Compound 278, (R)—N-(5-(5-(3-cyano-4-isopropoxyphenyl)-1,3,4-thiadiazol-2-yl)-1,2,3,4-tetrahydronaphthalen-1-yl)methanesulfonamide]	0.05 to 0.5 nM
CC(C)Oc1ccc(-c2nnc(-c3cccc4c3CCC[C@@H]4NS(C)(=O)=O)s2)cc1C#N [Compound 279, (S)—N-(5-(5-(3 cyano-4-isopropoxyphenyl)-1,3,4-thiadiazol-2-yl)-1,2,3,4-tetrahydronaphthalen-1-yl)methanesulfonamide]	0.05 to 0.5 nM
COCCS(=O)(=O)N[C@@H]1CCCc2c(-c3nnc(-c4ccc(OC(C)C)c(C#N)c4)s3)cccc21 [Compound 280, (R)—N-(5-(5-(3-cyano-4-isopropoxyphenyl)-1,3,4-thiadiazol-2-yl)-1,2,3,4-tetrahydronaphthalen-1-yl)-2-methoxyethanesulfonamide]	0.5 to 5 nM
COCCS(=O)(=O)N[C@H]1CCCc2c(-c3nnc(-c4ccc(OC(C)C)c(C#N)c4)s3)cccc21 [Compound 281, (S)—N-(5-(5-(3-cyano-4-isopropoxyphenyl)-1,3,4-thiadiazol-2-yl)-1,2,3,4-tetrahydronaphthalen-1-yl)-2-methoxyethanesulfonamide]	0.05 to 0.5 nM
CC(C)Oc1ccc(-c2nnc(-c3cccc4c3CCC[C@H]4NS(=O)(=O)C3CC3)s2)cc1C#N [Compound 282]	0.5 to 5 nM
CC(C)Oc1ccc(-c2nnc(-c3cccc4c3CCC[C@@H]4NS(=O)(=O)C3CC3)s2)cc1C#N [Compound 283]	0.05 to 0.5 nM
